{
  "source": "ChEMBL document CHEMBL1275466",
  "about": "“Diversity of penicillin binding proteins among clinical Streptococcus pneumoniae strains from Portugal” (2008)",
  "type_in_all_cases": "functional",
  "key": {"Streptococcus pneumoniae [1]": {"test_system": "Streptococcus pneumoniae", "experiment": "Antibacterial activity against Streptococcus pneumoniae R6"}, "Streptococcus pneumoniae [2]": {"test_system": "Streptococcus pneumoniae", "experiment": "Antibacterial activity against Streptococcus pneumoniae serotype 4 ATCC BAA-334 harboring mutant PBP1A"}, "Streptococcus pneumoniae [3]": {"test_system": "Streptococcus pneumoniae", "experiment": "Antibacterial activity against Streptococcus pneumoniae serotype 9V URA4929 harboring mutant PBP1A"}, "Streptococcus pneumoniae [4]": {"test_system": "Streptococcus pneumoniae", "experiment": "Antibacterial activity against tetracycline- erythromycin- clindamycin-resistant Streptococcus pneumoniae serotype 6B URA4376 harboring mutant PBP1A"}, "Streptococcus pneumoniae [5]": {"test_system": "Streptococcus pneumoniae", "experiment": "Antibacterial activity against Streptococcus pneumoniae serotype 3 URA3537 harboring mutant PBP1A"}, "Streptococcus pneumoniae [6]": {"test_system": "Streptococcus pneumoniae", "experiment": "Antibacterial activity against Streptococcus pneumoniae URA2543 harboring mutant PBP1A"}, "Streptococcus pneumoniae [7]": {"test_system": "Streptococcus pneumoniae", "experiment": "Antibacterial activity against erythromycin-resistant Streptococcus pneumoniae serotype 14 URA4933 harboring mutant PBP2X and PBP1A"}, "Streptococcus pneumoniae [8]": {"test_system": "Streptococcus pneumoniae", "experiment": "Antibacterial activity against multidrug resistant Streptococcus pneumoniae serotype 23 URA3558 harboring mutant PBP2X and PBP1A"}, "Streptococcus pneumoniae [9]": {"test_system": "Streptococcus pneumoniae", "experiment": "Antibacterial activity against Streptococcus pneumoniae serotype 19F URA4087 harboring mutant PBP2X and PBP1A"}, "Streptococcus pneumoniae [10]": {"test_system": "Streptococcus pneumoniae", "experiment": "Antibacterial activity against multidrug resistant Streptococcus pneumoniae serotype 6B URA4566 harboring mutant PBP2B PBP2X and PBP1A"}, "Streptococcus pneumoniae [11]": {"test_system": "Streptococcus pneumoniae", "experiment": "Antibacterial activity against Streptococcus pneumoniae serotype 22 URA2542 harboring PBP2B harboring mutant PBP2B PBP2X and PBP1A"}, "Streptococcus pneumoniae [12]": {"test_system": "Streptococcus pneumoniae", "experiment": "Antibacterial activity against penicillin-resistant Streptococcus pneumoniae serotype 19A URA3635 harboring mutant PBP2B PBP2X and PBP1A"}, "Streptococcus pneumoniae [13]": {"test_system": "Streptococcus pneumoniae", "experiment": "Antibacterial activity against penicillin-resistant Streptococcus pneumoniae serotype 14 URA4731 harboring mutant PBP2B PBP2X and PBP1A"}, "Streptococcus pneumoniae [14]": {"test_system": "Streptococcus pneumoniae", "experiment": "Antibacterial activity against penicillin-resistant Streptococcus pneumoniae serotype 23F URA5391 harboring mutant PBP2B PBP2X and PBP1A"}, "Streptococcus pneumoniae [15]": {"test_system": "Streptococcus pneumoniae", "experiment": "Antibacterial activity against multidrug resistant Streptococcus pneumoniae serotype 15A URA5779 harboring mutant PBP2B PBP2X and PBP1A"}, "Streptococcus pneumoniae [16]": {"test_system": "Streptococcus pneumoniae", "experiment": "Antibacterial activity against multidrug resistant Streptococcus pneumoniae serotype 6B ATCC 700670 harboring mutant PBP2B PBP2X and PBP1A"}, "Streptococcus pneumoniae [17]": {"test_system": "Streptococcus pneumoniae", "experiment": "Antibacterial activity against multidrug resistant Streptococcus pneumoniae serotype 19A ATCC 700673 harboring mutant PBP2B PBP2X and PBP1A"}, "Streptococcus pneumoniae [18]": {"test_system": "Streptococcus pneumoniae", "experiment": "Antibacterial activity against multidrug resistant Streptococcus pneumoniae serotype 19A URA5805 harboring mutant PBP2B PBP2X and PBP1A"}, "Streptococcus pneumoniae [19]": {"test_system": "Streptococcus pneumoniae", "experiment": "Antibacterial activity against multidrug resistant Streptococcus pneumoniae serotype 23F ATCC 51916 harboring mutant PBP2B PBP2X and PBP1A"}, "Streptococcus pneumoniae [20]": {"test_system": "Streptococcus pneumoniae", "experiment": "Antibacterial activity against penicillin-cefotaxime- ceftriaxone-resistant Streptococcus pneumoniae serotype 14 URA3543 harboring mutant PBP2B PBP2X and PBP1A"}, "Streptococcus pneumoniae [21]": {"test_system": "Streptococcus pneumoniae", "experiment": "Antibacterial activity against penicillin-cefotaxime- ceftriaxone-resistant Streptococcus pneumoniae URA6056 harboring mutant PBP2B PBP2X and PBP1A"}, "Streptococcus pneumoniae [22]": {"test_system": "Streptococcus pneumoniae", "experiment": "Antibacterial activity against penicillin-cefotaxime- ceftriaxone-resistant Streptococcus pneumoniae serotype 14 URA3043 harboring mutant PBP2B PBP2X and PBP1A"}, "Streptococcus pneumoniae [23]": {"test_system": "Streptococcus pneumoniae", "experiment": "Antibacterial activity against multidrug resistant Streptococcus pneumoniae serotype 14 URA4203 harboring mutant PBP2B PBP2X and PBP1A"}, "Streptococcus pneumoniae [24]": {"test_system": "Streptococcus pneumoniae", "experiment": "Antibacterial activity against penicillin-resistant Streptococcus pneumoniae serotype 14 URA5128 harboring mutant PBP2B PBP2X and PBP1A"}, "Streptococcus pneumoniae [25]": {"test_system": "Streptococcus pneumoniae", "experiment": "Antibacterial activity against multidrug resistant Streptococcus pneumoniae serotype 19F URA3699 harboring mutant PBP2B PBP2X and PBP1A"}, "Streptococcus pneumoniae [26]": {"test_system": "Streptococcus pneumoniae", "experiment": "Antibacterial activity against multidrug resistant Streptococcus pneumoniae serotype 24F URA5450 harboring mutant PBP2B PBP2X and PBP1A"}},
  "data": [
    {"smiles": "CC1(C)S[C@@H]2[C@H](NC(=O)Cc3ccccc3)C(=O)N2[C@H]1C(=O)O", "note": "[PENICILLIN G]", "values": [
      {"measurement": "MIC", "setting": "Streptococcus pneumoniae [1]", "result": 0.0125, "unit": "µg/mL"},
      {"measurement": "MIC", "setting": "Streptococcus pneumoniae [2]", "result": 0.0125, "unit": "µg/mL"},
      {"measurement": "MIC", "setting": "Streptococcus pneumoniae [3]", "result": 0.0125, "unit": "µg/mL"},
      {"measurement": "MIC", "setting": "Streptococcus pneumoniae [4]", "result": 0.0125, "unit": "µg/mL"},
      {"measurement": "MIC", "setting": "Streptococcus pneumoniae [5]", "result": 0.0125, "unit": "µg/mL"},
      {"measurement": "MIC", "setting": "Streptococcus pneumoniae [6]", "result": 0.025, "unit": "µg/mL"},
      {"measurement": "MIC", "setting": "Streptococcus pneumoniae [7]", "result": 0.0125, "unit": "µg/mL"},
      {"measurement": "MIC", "setting": "Streptococcus pneumoniae [8]", "result": 0.2, "unit": "µg/mL"},
      {"measurement": "MIC", "setting": "Streptococcus pneumoniae [9]", "result": 0.025, "unit": "µg/mL"},
      {"measurement": "MIC", "setting": "Streptococcus pneumoniae [10]", "result": 0.1, "unit": "µg/mL"},
      {"measurement": "MIC", "setting": "Streptococcus pneumoniae [11]", "result": 0.05, "unit": "µg/mL"},
      {"measurement": "MIC", "setting": "Streptococcus pneumoniae [12]", "result": 0.1, "unit": "µg/mL"},
      {"measurement": "MIC", "setting": "Streptococcus pneumoniae [13]", "result": 0.1, "unit": "µg/mL"},
      {"measurement": "MIC", "setting": "Streptococcus pneumoniae [14]", "result": 0.1, "unit": "µg/mL"},
      {"measurement": "MIC", "setting": "Streptococcus pneumoniae [15]", "result": 0.1, "unit": "µg/mL"},
      {"measurement": "MIC", "setting": "Streptococcus pneumoniae [16]", "result": 2, "unit": "µg/mL"},
      {"measurement": "MIC", "setting": "Streptococcus pneumoniae [17]", "result": 2, "unit": "µg/mL"},
      {"measurement": "MIC", "setting": "Streptococcus pneumoniae [18]", "result": 1.6, "unit": "µg/mL"},
      {"measurement": "MIC", "setting": "Streptococcus pneumoniae [19]", "result": 0.1, "unit": "µg/mL"},
      {"measurement": "MIC", "setting": "Streptococcus pneumoniae [20]", "result": 2, "unit": "µg/mL"},
      {"measurement": "MIC", "setting": "Streptococcus pneumoniae [21]", "result": 3.2, "unit": "µg/mL"},
      {"measurement": "MIC", "setting": "Streptococcus pneumoniae [22]", "result": 2, "unit": "µg/mL"},
      {"measurement": "MIC", "setting": "Streptococcus pneumoniae [23]", "result": 1.6, "unit": "µg/mL"},
      {"measurement": "MIC", "setting": "Streptococcus pneumoniae [24]", "result": 0.5, "unit": "µg/mL"},
      {"measurement": "MIC", "setting": "Streptococcus pneumoniae [25]", "result": 0.5, "unit": "µg/mL"},
      {"measurement": "MIC", "setting": "Streptococcus pneumoniae [26]", "result": 0.5, "unit": "µg/mL"}
    ]}
  ]
}
